Structures can show the parent of a compound that is named as a salt.
Target: MASP-2 CCP2-SP (Homo sapiens (Human), UniProt O00187)
Test: MASP-2 co-crystallization, X-ray crystallography and structure analysis (H-bonds, van der Waals contacts);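 on Ligand-pharmacophore element distance, pharmacophore element C2: distance from averaged pharmacophore element to bound ligand; missing value means element absent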;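 on Ligand-pharmacophore element distance, pharmacophore element C3: distance from averaged pharmacophore element to bound ligand; missing value means element absent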;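 on Ligand-pharmacophore element distance, pharmacophore element C4: distance from averaged pharmacophore element to bound ligand; missing value means element absent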;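 on Ligand-pharmacophore element distance, pharmacophore element C5: distance from averaged pharmacophore element to bound ligand; missing value means element absent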
Set-up: van der Waals contact distance, MASP-2 HIS 483 atom CD2 / van der Waals contact distance, MASP-2 HIS 483 atom NE2 / van der Waals contact distance, SER 654 C to compound atom / van der Waals contact distance, SER 654 O to compound atom / van der Waals contact distance, TRP 655 C to compound atom / van der Waals contact distance, MASP-2 GLY 528 atom CA / van der Waals contact distance TRP 655 atom CZ3 / van der Waals contact distance TRP 655 atom N / van der Waals contact distance TRP 655 atom CE3 / van der Waals contact distance GLY 656 atom C / van der Waals contact distance GLY 656 atom CA / van der Waals contact distance GLY 656 atom O / van der Waals contact distance, MASP-2 TYR 607 atom CD1 / van der Waals contact distance, MASP-2 PRO 606 atom O / d(C3,CA1) / d(CA1,N1)2 / d(H4,O1) / d(H4,O2) / d(O1,O2) / d(CA1,O2) / d(CA6,O1) / d(CA6,O2) / d(CA1,C5) / d(O2,H3) / d(N2,C2) / d(CA5,N2) / d(N2,C4) / d(N2,C6) / d(N2,CA3) / d(N2,O3) / d(O4,H2): unit not given beside the values
Details: for H-bond distance to MASP-2 GLY 656 atom N: GLY 656 N; for H-bond distance to MASP-2 SER 654 atom O: SER 654 O; for van der Waals contact distance, VAL 653 CG1 to compound atom: Table A2-11
How it was run: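 Soaked crystals of recombinant CCP2-SP (E. coli) yield the structures, phased by molecular replacement on 1Q3X pieces. Hydrophobic or nonbonded contacts can also cover atom pairs that are potential hydrogen bonds.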

[1] = Table A2-5: TYR 607 (CE1, CE2, OH), PRO 608 (CD, CG), SER 611 (CA)
[2] = Table A2-9, ARG 630, AA atoms CG, CZ
[3] = Table A5-1 pharmacophore: distance between elements, S2/S1 region
[4] = Table A5-2 pharmacophore distance, S3/S4 region
[5] = Table A7-1, between pharmacophore elements of the bound compound

Chain of MASP-2 CCP2-SP (O00187 445-686): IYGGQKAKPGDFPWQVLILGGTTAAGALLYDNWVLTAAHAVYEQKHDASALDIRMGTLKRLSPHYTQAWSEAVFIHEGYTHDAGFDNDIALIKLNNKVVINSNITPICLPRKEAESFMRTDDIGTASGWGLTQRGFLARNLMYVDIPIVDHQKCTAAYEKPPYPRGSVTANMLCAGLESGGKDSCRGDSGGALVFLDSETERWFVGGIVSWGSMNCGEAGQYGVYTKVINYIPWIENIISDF
Chain of MASP-2 CCP2-SP (O00187 364-432 partner): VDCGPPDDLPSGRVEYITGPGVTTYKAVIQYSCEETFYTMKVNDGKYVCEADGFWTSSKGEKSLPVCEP

With `N=C(N)c1ccc(CNC(=O)C(CF)NC(=O)[C@H](N)CCc2ccccc2)cc1` (stereo partly drawn) [compound 1050, (2R)-2-Amino-N-(1-((4-carbamimidoylbenzyl)amino)-3-fluoro-1-oxopropan-2-yl)-4-phenylbutanamide Dihydrochloride] the “H-bond distance to MASP-2 GLY 656 atom N” value (Table A1 (H-Bonds)) was 3.18, the “H-bond distance to MASP-2 GLY 656 atom O” value (Table A1 (H-Bonds), GLY 656 O) was 2.58 and the “H-bond distance to MASP-2 SER 654 atom O” value (Table A1 (H-Bonds)) was 3.03. The “H-bond distance to MASP-2 SER 657 atom O” value (Table A1 (H-Bonds), SER 657 O) was 2.86, the “van der Waals contact distance, MASP-2 PHE 529 atom CD1” value (Table A2-3) was 3.61 and the “van der Waals contact distance, MASP-2 PHE 529 atom CE1” value (Table A2-3) was 3.56. For the same molecule, the “van der Waals contact distance, MASP-2 PHE 529 atom CZ” value (Table A2-3) was 3.88, the “van der Waals contact distance, MASP-2 amino acid atom to compound atom” value [1] was 3.68 and the “van der Waals contact distance, MASP-2 amino acid atom to compound atom” value [2] was 3.66. For the same molecule, the “van der Waals contact distance, MASP-2 amino acid atom to compound atom” value (Table A2-9 second part, ARG 630, AA atoms N, NE, NH1) was 3.66, the “van der Waals contact distance, VAL 653 CG1 to compound atom” value was 3.74 and the “van der Waals contact distance, SER 654 O to compound atom” value (Table A2-12) was 3.72. The “van der Waals contact distance TRP 655 atom CZ3” value (Table A2-13, MASP-2 TRP 655 CZ3) was 3.81, the “van der Waals contact distance TRP 655 atom N” value (Table A2-13, MASP-2 TRP 655 N) was 3.74 and the “Ligand-pharmacophore element distance, pharmacophore element C2” value (Table A4-1, element C2) was 6.95. The “Ligand-pharmacophore element distance, pharmacophore element C3” value (Table A4-1, element C3) was 0, the “Ligand-pharmacophore element distance, pharmacophore element C4” value (Table A4-1, element C4) was 0 and the “Ligand-pharmacophore element distance, pharmacophore element C5” value (Table A4-1, element C5) was 0. For the same molecule, the “Ligand-pharmacophore element distance, pharmacophore element C6” value (Table A4-1, element C6) was 0, the “Ligand-pharmacophore element distance, pharmacophore element C7” value (Table A4-1, element C7) was 0 and the “Ligand-pharmacophore element distance, pharmacophore element CA1” value (Table A4-1, element CA1) was 0.57. The “Ligand-pharmacophore element distance, pharmacophore element CA2” value (Table A4-1, element CA2) was 0.33, the “Ligand-pharmacophore element distance, pharmacophore element CA3” value (Table A4-1, element CA3) was 0 and the “Ligand-pharmacophore element distance, pharmacophore element CA4” value (Table A4-1, element CA4) was 0. The “Ligand-pharmacophore element distance, pharmacophore element CA5” value (Table A4-1, element CA5) was 0, the “Ligand-pharmacophore element distance, pharmacophore element CA6” value (Table A4-1, element CA6) was 0 and the “d(CA1,N1)” value [3] was 3.47. The “d(CA1,O1)” value [3] was 4.10, the “d(CA1,O2)” value [3] was 4.29 and the “d(H4,O1)” value [3] was 4.58. The “d(H4,O2)” value [3] was 4.38, the “d(O1,O2)” value [3] was 3.01 and the “d(N2,C2)” value [4] was 6.69. For the same molecule, the “d(N2,CA2)” value [4] was 5.73, the “d(O2,H3)” value [4] was 2.72 and the “d(O2,N2)” value [4] was 2.76. For the same molecule, the “a(CA1, O1, O2)” value (Table A6-1 pharmacophore angle) was 114.34, the “a(O1, O2, H4)” value (Table A6-1 pharmacophore angle) was 140.76 and the “A(N1, CA1, O1) a)” value (Table A6-1 pharmacophore angle, all compounds with protonatable center N1 except Methyl-amino-pyridine) was 160.78. For the same molecule, the “a(O1, O2, H3)” value (Table A6-2 pharmacophore angle) was 137.51, the “a(O1, O2, N2)” value (Table A6-2 pharmacophore angle) was 140.97 and the “a(O2, N2, C2)” value (Table A6-2 pharmacophore angle) was 159.29. For the same molecule, the “a(O2, N2, CA2)” value (Table A6-2 pharmacophore angle) was 153.66, the “Pharmacophore torsion angle a(H4, O1, O2, H3)” value [5] was 102.21 and the “Pharmacophore torsion angle a(H4, O1, O2, N2)” value [5] was 123.45. The “Pharmacophore torsion angle a(N1, CA1, O2, H4)” value [5] was −131.38, the “Pharmacophore torsion angle a(O1, H4, O2, CA1)” value [5] was −58.32 and the “Pharmacophore torsion angle a(O1, O2, N2, C2)” value [5] was 66.94. For the same molecule, the “Pharmacophore torsion angle a(O1, O2, N2, CA2)” value (Table A7-2, between pharmacophore elements of the bound compound) was 147.29.
`C[C@H](NC(=O)[C@H]1C[C@@H](c2ccccc2)CCN1)C(=O)NCc1cc(Cl)ccc1O` [compound 1078] was tested, and the “H-bond distance to MASP-2 ARG 630 atom NH1 (second bond)” value (Table A1 (H-Bonds), ARG 630 NH1) was 3.25, the “H-bond distance to MASP-2 ARG 630 atom NH1” value (Table A1 (H-Bonds), ARG 630 NH1, first column) was 2.92 and the “H-bond distance to MASP-2 GLY 656 atom N” value (Table A1 (H-Bonds)) was 3.14. The “H-bond distance to MASP-2 SER 654 atom O” value (Table A1 (H-Bonds)) was 2.66, the “van der Waals contact distance, MASP-2 HIS 483 atom CD2” value (Table A2-1) was 3.35 and the “van der Waals contact distance, MASP-2 HIS 483 atom NE2” value (Table A2-1) was 3.28. The “van der Waals contact distance, MASP-2 amino acid atom to compound atom” value [2] was 3.78 and the “van der Waals contact distance, VAL 653 CG1 to compound atom” value was 3.49.
In the case of `C[C@H](NC(=O)[C@H](N)C1Cc2ccccc2C1)C(=O)NCc1ccc2c(N)nccc2c1` [compound 1088, (S)-2-((R)-2-Amino-2-(2,3-dihydro-1H-inden-2-yl)acetamido)-N-((1-aminoisoquinolin-6-yl)methyl)propanamide Dihydrochloride], the “H-bond distance to MASP-2 ASP 627 atom OD1” value (Table A1 (H-Bonds), ASP 627 OD1) is reported as 2.91, the “H-bond distance to MASP-2 ASP 627 atom OD2” value (Table A1 (H-Bonds), ASP 627 OD2) is reported as 3.16 and the “H-bond distance to MASP-2 GLY 656 atom N” value (Table A1 (H-Bonds)) is reported as 3.22. The “H-bond distance to MASP-2 SER 628 atom OG” value (Table A1 (H-Bonds), SER 628 OG) was 3.16, the “H-bond distance to MASP-2 SER 654 atom O” value (Table A1 (H-Bonds)) was 2.89 and the “van der Waals contact distance, MASP-2 PRO 606 atom C” value (Table A2-4) was 3.89. For the same molecule, the “van der Waals contact distance, MASP-2 TYR 607 atom CD1” value (Table A2-4) was 3.82, the “van der Waals contact distance, MASP-2 amino acid atom to compound atom” value [1] was 3.73 and the “van der Waals contact distance, MASP-2 amino acid atom to compound atom” value [2] was 3.79. For the same molecule, the “van der Waals contact distance SER 657 atom C” value (Table A2-14, MASP-2 SER 657 C, columns c12-c13 (inferred)) was 3.64.

Reference: patent US12195427B2, “MASP-2 inhibitors and methods of use” (priority 2018, dated 2025)
